# Measurements reported in patent publication US10426755B2, “Methods for inhibiting cancer cells” (Chang Gung Memorial Hospital, Chiayi, priority 2015, dated 2019).
# Entries after “also recorded” stand apart in the source; their conditions may differ.
# What was measured:
# Type in all cases: cell-based
# [1] = test system: prostate cancer cell lines (LNCaP, hormone therapy-resistant PC3, DU145 and 22RV1); experiment: XTT proliferation assay, prostate cancer cells; settings: 1, 5 and 10 μM DT, 1-2 days, XTT absorbance 492 nm; FIG. 1
# Description: An in vitro evaluation of the effect of dihydroisotanshinone I (DT) on the following prostate cancer cell lines was performed: LNCaP (with lymph node metastasis), hormone therapy resistant PC3 (with bone metastasis), 22RV1, DU145 (with brain metastasis), were obtained from Bioresource Collection and Research Center, Taiwan and DT was purchased from ChemFaces Co., Ltd., China.
# (§1) The prostate cancer cells were plated at a density of 10^3 or 3×10^3 per well, in a 96-well plate, in a medium containing 10% Fetal bovine serum (FBS) (Gibco®, commercially available from Life Technologies, USA). Once the prostate cancer cells were attached to the culture dish, the 10% FBS medium was replaced with a second 10% FBS medium and each of the prostate cancer cell line was treated with 1, 5, and 10 μM of DT respectively for 1-2 days. The absorbance was measured using XTT assay kit (commercially available from Roche, Switzerland) at 492 nm using an ELISA reader (Bio-Rad Laboratories, USA).
# [2] = test system: chemotherapy-resistant colorectal cancer cells (HCT116); experiment: XTT proliferation assay, colorectal cancer cells; settings: 1, 5 and 10 μM DT, 1-3 days, FIG. 5
# Description: as §1
# An in vitro evaluation of the effect of DT on the chemotherapy-resistant colorectal cancer cells was performed. The chemotherapy-resistant colorectal cancer cells (HCT116) were obtained from Dr. K D Lee at Chang Gung Memorial Hospital, Chiayi, Taiwan. The colorectal cancer cells were cultured and plated according to the steps in Example 1 and treated with 0 (control), 1, 5 and 10 μM of DT, respectively for 1-3 days. The absorbance was measured using XTT assay kit at 492 nm using an ELISA reader.
# [3] = test system: skp2, MMP2, MMP9 in DU145, PC3 and 22RV1 prostate cancer cells; experiment: skp2 and downstream gene mRNA expression, prostate cancer cells; settings: various concentrations of DT vs DMSO; PC3, DU145, 22RV1; FIG. 9 (h)-(l)
# Description: (§2) It has been reported that skp2 plays an important role in the metastasis of cancer cells. An in vitro evaluation of the effect of DT on prostate cancer cell metastasis was performed, by measuring the mRNA expression of skp2 in the following prostate cancer cell lines: meatstatic DU145 cells (Panels i-j of FIG. 9), hormone therapy resistant and metastatic PC3 cells (Panel h of FIG. 9), and 22RV1 cells (Panels k-l of FIG. 9), A549 lung cancer cells (Panels (c)-(e) of FIG. 10), chemotherapy-resistant/metastatic H460 lung cancer cells (Panels (d) and (f) of FIG. 10), HCT116 colon cancer cells (Panels (g) and (i) of FIG. 10) and MCF7-tamoxifen resistant breast cancer cells (Panels (h) and (j) of FIG. 10) […].
# (§3) The cancer cells were treated with DMSO and various concentrations of DT.
# [4] = test system: skp2 and downstream genes in MCF7-tamoxifen resistant breast cancer cells; experiment: skp2 and downstream gene mRNA expression, tamoxifen resistant breast cancer cells; settings: various concentrations of DT vs DMSO, FIG. 10 (h), (j)
# Description: as §2, §3
# [5] = test system: lung cancer cells (A549 and chemotherapy resistant/metastatic H460); experiment: Cell migration (wound-healing) assay, lung cancer cells; settings: DT vs control vehicle, 24 h, dose dependent; FIG. 11
# Description: (§4) An in vitro evaluation of the effect of DT on lung cancer cells (A549 and chemotherapy resistant/metastatic H460), prostate cancer cells (metastatic DU145) and colorectal cancer cells (chemotherapy resistant HCT116) invasion and migration was performed, using cell invasion assay and cell migration assay.
# (§5) Cell Migration Assay: In vitro wound-healing assay was used to assess cell motility in two dimensions. Cancer cells were plated overnight to achieve a subconfluent cell layer in 24-well plates. A scratch was made on the cell layer with a micropipette tip, and cultures were washed twice with serum-free medium to remove floating cells. Cancer cells were incubated in a culture medium containing DT or the control vehicle. Wound healing was visualized by comparing photographs taken at the time of adding the DT/control vehicle and 24 h later. Three experiments were done in quadruplicates.
# [6] = test system: colorectal cancer cells (chemotherapy resistant HCT116); experiment: Cell migration (wound-healing) assay, colorectal cancer cells; settings: DT vs control vehicle, 24 h, dose dependent; FIG. 13 (b)
# Description: as §4, §5
# [7] = test system: CCL2 in metastatic DU145 prostate cancer cells; experiment: CCL2 ELISA of culture medium, DU145; settings: 5 or 10 μM DT, 24 hours, vs DMSO, FIG. 14 (c)
# Description: It has been reported that increased CCL2 expression enhances cancer cell metastasis via macrophage recruitment. The effect of DT on CCL2 expression in RAW264.7 macrophages, THP1 monocytes and prostate cancer cells (metastatic DU145 and hormone therapy resistant and metastatic PC3) was examined by treating the cells with DMSO (control), 5 or 10 μM DT for 24 hours.
# The culture medium was collected and the concentration of CCL2 was measured using ELISA assay.
# [8] = test system: CCL2 in THP1/DU145 co-culture; experiment: CCL2 ELISA, THP1/DU145 co-culture; settings: DT-treated monocyte/DU145 co-culture medium; 5 or 10 μM DT, 24 hours; FIG. 15 (a)
# Description: As illustrated in Example 10, the production of CCL2 was inhibited by DT in both prostate cancer cells and macrophage, the effect of DT on monocyte/cancer cell co-culture and macrophage/cancer cell co-culture was examined using the invasion assay described in Example 9. • (a) THP1 monocytes, Raw264.7 macrophage, monocyte/prostate cancer co-culture and macrophage/prostate cancer co-culture were treated with a vehicle (DMSO), 5 or 10 μM DT for 24 hours, the cultured medium was collected and placed into the lower chamber of a transwell plate. • (b) Prostate cancer cells (PC3, DU145 and 22RV1) were placed in the cell invasion assay). The level of CCL2 in the invasion assay was measured by ELIZA method.
# macrophages = experiment: Macrophage mobility after DT treatment; settings: macrophages treated with 5 or 10 μM DT vs DMSO
# Description: (§6) An in vitro study to evaluate the effect of DT on macrophage and cancer cell migration was performed.
# (§7) Macrophages were treated with a vehicle (DMSO), 5 or 10 μM DT. The mobility of the macrophages was not affected by DT. The macrophages were placed in an invasive assay, prepared accordingly to the steps in Example 10 using DT-treated prostate cancer cells (DU145 or PC3) incubated in 10% CD-FBS RPMI medium.
# [9] = test system: macrophages with prostate cancer cells (DU145 or PC3); experiment: Macrophage migration in invasive assay with DT-treated prostate cancer cells; settings: DT-treated vs untreated DU145 and PC3 cells; images not shown
# Description: as §6, §7
structure (smiles),measurement,setting,value
"Cc1cccc2c3c(ccc12)C(=O)C1=C(OCC1C)C3=O (stereo not shown) [DT, dihydroisotanshinone I]",inhibition of prostate cancer cell proliferation,[1],inhibits prostate cancer cell proliferation in a dose dependent fashion
same,inhibition of chemotherapy-resistant colorectal cancer cells,[2],effective in inhibiting chemotherapy-resistant colorectal cancer cells in a dose dependent manner
same,"mRNA expression of skp2 and its downstream genes, prostate cancer",[3],"effectively inhibit mRNA expression of skp2 and its downstream genes; also recorded: reduced skps and its downstream genes, MMP2 and MMP9"
same,"mRNA expression of skp2 and its downstream genes, target therapy resistant breast cancer",[4],"effectively inhibit mRNA expression of skp2 and its downstream genes; also recorded: reduces skps and its downstream genes, MMP2, MMP9 and E-cadherin"
same,lung cancer cell migration into the wounded area,[5],reduced metastatic lung cancer cell migration; also recorded: reduced lung cancer cell migration into the wounded area
same,colorectal cancer cell migration into the wounded area,[6],reduced chemotherapy resistant colorectal cancer cell migration; also recorded: reduced colon cancer cell migration into the wounded area
same,production of CCL2 in metastatic DU145 prostate cancer cells,[7],effectively inhibit the production of CCL2
same,concentration of CCL2,[8],significantly reduced
same,mobility of the macrophages,macrophages,not affected
same,macrophage migration induced by prostate cancer cells,[9],inhibit macrophage migration
